In one series the target is T1, FMN2 (Homo sapiens, UniProt Q9NZ56).
T1 construct: UniProt Q9NZ56-1, aa 1192-1722; 6-histidine tag (N); made in house; host or cells: ROSETTA-DE3 E. coli
As to the kind of experiment: pyrene-actin polymerization assay, FMN2-FFC. It is filed as biochemical. The procedure: (§1) Several SMIFH2 analogs are known to retain or lose inhibitory activity against mDia1[18]. We sought to expand this dataset to more extensively characterize structure–activity relationships in the SMIFH2/formin complex. All 17 analogs shown in Fig. 4 were synthesized according to the scheme described in the Experimental Procedures (Fig. 6) and characterized by proton NMR (Fig. S8). Each inhibitor was tested for potential interaction with actin in the absence of formin (Figs. S3, S4). […] This panel of 18 inhibitors was tested against five formin FFC fragments (DIAPH1, DIAPH2, INF2, FMNL3, and FMN2), and the IC50 values were measured (Fig. 4 and Table 1). One notable trend in this dataset is that the lack of specificity, noted above for SMIFH2 (Fig. 3), holds for its analogs: no modifications made to SMIFH2 led to a selective inhibitor, at least among the five formins that were tested.
(§2) Figure 4 Structure activity data for SMIFH2 and 17 analogs tested against five human formins. Each individual data point indicates an IC50 value from a titration of inhibitor in the pyrene-actin assembly assay. Conditions: 2 µM actin (5% pyrene-labeled), 4 µM S. pombe profilin, formin (5 nM DIAPH1-FFC, 5 nM DIAPH2-FFC, 5 nM INF2-FFC, 20–37.5 nM FMN2-FFC, 20 nM FMNL3-FFC), inhibitor with a fixed volume of DMSO. […] Because we cannot reliably measure IC50 values above 40 µM, those points are indicated at the > 40 µM line.
(§3) Assays were carried out as described. Rabbit skeletal muscle actin (5% pyrene labeled) was incubated for 2 min at 25 °C with 200 μM EGTA and 50 μM MgCl2 to convert Ca-actin to Mg-actin. When included in the experiment, a 2:1 molar ratio of profilin was incubated with actin for 2 min at 25 °C before conversion to Mg-actin. Polymerization was initiated by adding polymerization buffer (KMEH, final concentration: 10 mM HEPES, pH 7.0, 1 mM EGTA, 50 mM KCl, 1 mM MgCl2). Prior to mixing KMEH with actin, formins and then the inhibitor in DMSO or DMF was added at ≤ 1% of the total volume. Finally, this mixture was rapidly mixed with Mg-actin, with approximately 10–20 s dead time prior to measurement. Fluorescence was monitored every 15 s using a TECAN F200 Pro with λex = 360 ± 17 nm and λem = 415 ± 10 nm. The same volume of organic solvent (DMSO or DMF) was added to each well regardless of inhibitor concentration.

For a further series, the target named is T2, DIAPH2 (Homo sapiens, UniProt O60879).
T2 construct: UniProt O60879-2, aa 553–1096; 6-histidine tag (N); made in house; host or cells: ROSETTA-DE3 E. coli
As to the kind of experiment: pyrene-actin polymerization assay, DIAPH2-FFC. Type of series: biochemical. The procedure:
as §1, §2, §3

For the next series, the system named is human formins. Briefly: pyrene-actin polymerization assay, panel of human formin FFC fragments. Type of series: biochemical. To be noted: for fold change in potency (IC50) compared with SMIFH2 (1): depending on the formin; for inhibitory activity against formins tested (in words): five formin FFC fragments (DIAPH1, DIAPH2, INF2, FMNL3, FMN2). The procedure:
Figure 3 SMIFH2 has broad activity across the human formins. For each titration, pyrene fluorescence was monitored for 2 μM actin (5% pyrene-labeled)/ 4 μM S. pombe profilin. […] Increasing concentration of SMIFH2 is indicated by blue traces, with the µM concentration labeled to the right of each plot. The volume of DMSO added was the same for all traces, regardless of SMIFH2 concentration.
To characterize the specificity of SMIFH2, we titrated the inhibitor against each purified formin, controlling for the volume of DMSO for all polymerization reactions (Fig. 3, as indicated by blue traces).
as §1, §3

Another series addresses DIAPH1 (Homo sapiens, UniProt O60610). As to the kind of experiment: pyrene-actin polymerization assay, DIAPH1-FFC. Type of series: biochemical. The procedure: as §1, §2, §3
For the next series, the target named is T3, INF2 (Homo sapiens, UniProt Q27J81).
T3 construct: UniProt Q27J81-1, aa 469–1249; 6-histidine tag (N); made in house; host or cells: ROSETTA-DE3 E. coli
As to the kind of experiment: pyrene-actin polymerization assay, INF2-FFC. It is filed as biochemical. Here is the method:
as §1, §2, §3

For the next series, the target named is T4, FMNL3 (Homo sapiens, UniProt Q8IVF7).
T4 construct: UniProt Q8IVF7-1, aa 481-1028; 6-histidine tag (N); made in house; host or cells: ROSETTA-DE3 E. coli
Briefly: pyrene-actin polymerization assay, FMNL3-FFC. It is filed as biochemical. The procedure: as §1, §2, §3

The subject of the next series is formin. Set-up: method as in PMID 33589498. To be noted: read-out: IC50 formin/mediated actin interactions; cited from earlier work.
The next series deals with mouse Dia1. Set-up: method as in PMID 19942139. To be noted: reported value; cited from earlier work.
The next series relates to Drosophila myosin 5. Details: method as in PMID 33589498. Conditions: read-out: IC50 actin-induced ATPase activity of Drosophila myosin 5; cited from earlier work.
The nature of a further series: solubility in DMSO. It is filed as physicochemical. Conditions: had to be dissolved in DMF for assays.

Entries after “also recorded” stand apart in the source; their conditions may differ. Bounds are passed on as bounds.

T1 sequence (Q9NZ56 1192-1722): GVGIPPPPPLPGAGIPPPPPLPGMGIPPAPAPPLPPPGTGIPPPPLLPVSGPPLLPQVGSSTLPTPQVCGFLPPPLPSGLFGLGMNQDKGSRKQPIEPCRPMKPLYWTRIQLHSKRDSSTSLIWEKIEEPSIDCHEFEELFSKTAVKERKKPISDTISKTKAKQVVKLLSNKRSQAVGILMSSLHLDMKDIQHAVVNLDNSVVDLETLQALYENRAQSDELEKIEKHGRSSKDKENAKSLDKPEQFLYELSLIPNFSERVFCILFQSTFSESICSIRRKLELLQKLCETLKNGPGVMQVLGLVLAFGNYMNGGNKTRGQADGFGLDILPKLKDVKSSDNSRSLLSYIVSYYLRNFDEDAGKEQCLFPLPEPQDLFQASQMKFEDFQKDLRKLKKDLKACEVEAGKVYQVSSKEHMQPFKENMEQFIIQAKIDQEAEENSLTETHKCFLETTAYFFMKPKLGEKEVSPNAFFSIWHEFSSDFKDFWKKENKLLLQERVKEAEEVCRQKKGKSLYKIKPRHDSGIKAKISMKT
T4 sequence (Q8IVF7 481-1028): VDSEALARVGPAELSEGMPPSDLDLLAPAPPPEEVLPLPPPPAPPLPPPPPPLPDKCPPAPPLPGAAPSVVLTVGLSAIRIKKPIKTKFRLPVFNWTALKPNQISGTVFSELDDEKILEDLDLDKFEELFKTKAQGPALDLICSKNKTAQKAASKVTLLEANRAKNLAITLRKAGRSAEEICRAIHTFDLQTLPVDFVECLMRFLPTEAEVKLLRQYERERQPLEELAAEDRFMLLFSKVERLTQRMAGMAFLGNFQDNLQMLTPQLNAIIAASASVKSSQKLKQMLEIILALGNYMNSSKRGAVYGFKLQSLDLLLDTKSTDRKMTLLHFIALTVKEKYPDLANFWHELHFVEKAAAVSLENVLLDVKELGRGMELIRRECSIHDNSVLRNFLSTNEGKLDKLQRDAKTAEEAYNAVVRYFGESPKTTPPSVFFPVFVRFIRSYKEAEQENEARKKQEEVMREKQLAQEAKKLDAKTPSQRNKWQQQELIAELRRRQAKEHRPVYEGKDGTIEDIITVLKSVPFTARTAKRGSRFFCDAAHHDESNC
DIAPH1, sequence (O60610 769-1222 limits assumed): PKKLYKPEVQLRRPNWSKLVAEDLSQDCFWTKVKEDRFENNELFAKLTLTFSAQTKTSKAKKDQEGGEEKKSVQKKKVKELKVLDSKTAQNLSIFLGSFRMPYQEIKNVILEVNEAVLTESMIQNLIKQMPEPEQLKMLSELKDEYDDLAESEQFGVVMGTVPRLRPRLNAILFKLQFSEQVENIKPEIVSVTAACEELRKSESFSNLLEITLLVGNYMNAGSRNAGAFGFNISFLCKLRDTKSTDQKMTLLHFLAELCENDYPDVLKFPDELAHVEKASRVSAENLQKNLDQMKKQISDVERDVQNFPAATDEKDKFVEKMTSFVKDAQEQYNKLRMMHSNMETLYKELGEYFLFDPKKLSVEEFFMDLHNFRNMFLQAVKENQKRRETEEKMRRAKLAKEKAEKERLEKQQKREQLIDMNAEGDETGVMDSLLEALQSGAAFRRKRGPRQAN
T3 sequence (Q27J81 469-1249): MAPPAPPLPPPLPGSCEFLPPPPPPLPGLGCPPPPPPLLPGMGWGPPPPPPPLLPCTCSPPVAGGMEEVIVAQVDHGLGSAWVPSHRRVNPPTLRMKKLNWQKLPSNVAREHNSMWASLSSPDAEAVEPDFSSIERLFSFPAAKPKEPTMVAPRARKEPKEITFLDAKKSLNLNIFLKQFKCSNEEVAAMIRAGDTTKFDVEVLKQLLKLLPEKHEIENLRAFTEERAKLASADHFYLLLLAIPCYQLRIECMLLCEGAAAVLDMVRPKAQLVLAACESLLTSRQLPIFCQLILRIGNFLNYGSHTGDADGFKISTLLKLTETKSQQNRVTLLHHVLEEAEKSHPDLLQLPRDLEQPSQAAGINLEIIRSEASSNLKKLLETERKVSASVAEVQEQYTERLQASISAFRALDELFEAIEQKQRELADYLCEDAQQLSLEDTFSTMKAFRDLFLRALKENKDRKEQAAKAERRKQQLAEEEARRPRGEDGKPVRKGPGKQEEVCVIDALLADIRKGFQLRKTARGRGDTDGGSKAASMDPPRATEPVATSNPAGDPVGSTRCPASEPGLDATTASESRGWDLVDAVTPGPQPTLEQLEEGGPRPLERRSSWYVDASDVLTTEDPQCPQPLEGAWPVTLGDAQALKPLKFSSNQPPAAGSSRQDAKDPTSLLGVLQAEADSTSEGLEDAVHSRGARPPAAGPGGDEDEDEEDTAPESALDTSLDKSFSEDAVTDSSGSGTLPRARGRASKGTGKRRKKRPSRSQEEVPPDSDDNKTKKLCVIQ
T2 sequence (O60879 553-1096 isoform O60879-2): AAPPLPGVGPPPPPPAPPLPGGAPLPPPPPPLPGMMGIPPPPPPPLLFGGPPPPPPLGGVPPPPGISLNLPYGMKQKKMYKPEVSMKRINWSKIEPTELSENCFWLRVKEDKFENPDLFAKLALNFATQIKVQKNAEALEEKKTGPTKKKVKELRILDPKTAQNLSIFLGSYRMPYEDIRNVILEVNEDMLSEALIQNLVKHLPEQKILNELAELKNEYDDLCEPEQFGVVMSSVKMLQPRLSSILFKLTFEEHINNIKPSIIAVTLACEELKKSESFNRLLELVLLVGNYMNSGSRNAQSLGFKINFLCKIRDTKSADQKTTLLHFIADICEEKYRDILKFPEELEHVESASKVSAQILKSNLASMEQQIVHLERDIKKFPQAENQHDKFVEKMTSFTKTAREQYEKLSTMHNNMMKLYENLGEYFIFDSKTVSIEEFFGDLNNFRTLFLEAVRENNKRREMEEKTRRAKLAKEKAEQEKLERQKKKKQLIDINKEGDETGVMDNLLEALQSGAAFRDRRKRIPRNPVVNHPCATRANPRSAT

In the case of `COc1ccc(N2C(=O)C(=Cc3ccc(Cl)o3)C(=O)NC2=S)cc1` [Compound 12], the IC50 against FMN2 worked out at 5 ± 3 µM; against DIAPH2 it was 1 ± 0.2 µM; against DIAPH1 it was 4 ± 1 µM; against INF2 it was 2 ± 1 µM; against FMNL3, 3 ± 2 µM. The “fold change in potency (IC50) compared with SMIFH2 (1)” value with human formins is “two–ninefold”. The “inhibitory activity against formins tested (in words)” value (“inhibitory activity” below) in the series on human formins was “most potent inhibitor”.

For `CCN1C(=O)C(=Cc2ccco2)C(=O)N(c2cccc(Br)c2)C1=S` [Compound 3], the IC50 against FMN2 was greater than 40 µM; at DIAPH2, greater than 40 µM; on DIAPH1, greater than 40 µM; against INF2, greater than 40 µM; against FMNL3, 40 µM.

As for `O=C1NC(=S)N(c2ccc(Br)cc2)C(=O)C1=Cc1ccco1` [Compound 8], the IC50 on FMN2 amounted to 8 ± 4 µM; on DIAPH2, 3 ± 1 µM; at DIAPH1, 8 ± 3 µM; at INF2, 7 ± 2 µM; on FMNL3, 6 ± 3 µM. The “inhibitory activity” value in the series with human formins was “maintained or slightly enhanced inhibitory activity”.

Take `O=C1NC(=S)N(c2cccc(Br)c2)C(=O)C1=Cc1ccco1` [Compound 1, 1-(3-bromophenyl)-5-(furan-2-ylmethylene)-2-thioxodihydropyrimidine-4,6(1H,5H)-dione, reference compound]: the IC50 was 10 ± 3 µM at FMN2; 6 ± 3 µM against DIAPH2; 10 to 20 µM in the series on formin; 30 ± 10 µM at DIAPH1; 10 ± 5 µM at INF2; 15 µM in the series with mouse Dia1. Further, the IC50 against FMNL3 is 21 ± 7 µM; in the series on Drosophila myosin 5 it was roughly 2 µM.

On to `O=C1NC(=S)N(c2ccc(Br)cc2)C(=O)C1=Cc1ccc(Cl)o1` [Compound 14], for which the IC50 stood at 15 µM at FMN2; 4 ± 1 µM on DIAPH2; 14 ± 2 µM against DIAPH1; 8 ± 1 µM against INF2; 10 µM at FMNL3.

As to `COc1ccc(N2C(=O)C(=Cc3ccc(Br)o3)C(=O)NC2=S)cc1` [Compound 11], the IC50 on FMN2 is 10 ± 1 µM; at DIAPH2 it was 2 ± 1.4 µM; at DIAPH1, 8 ± 2 µM; on INF2 it was 3 ± 2 µM; against FMNL3, 7 ± 1 µM.

Turning to `O=C1NC(=O)N(c2cccc(Br)c2)C(=O)C1=Cc1ccco1` [Compound 5], the IC50 at FMN2, against DIAPH2, at DIAPH1, against INF2 and against FMNL3 was greater than 40 µM throughout. Also, the “inhibitory activity” value in the series with human formins is “complete loss of inhibitory activity”.

Turning to `O=C1NC(=S)N(c2cccc(Br)c2)C(=O)C1=Cc1cccs1` [Compound 7], the IC50 against DIAPH2, at DIAPH1, against INF2 and on FMNL3 was greater than 40 µM in each case. In addition, the “inhibitory activity” value in the series with human formins is on record as “no detectable inhibitory effect”.

Turning to `O=C1NC(=S)N(c2cccc(Br)c2)C(=O)C1=Cc1ccc[nH]1` [Compound 6], the IC50 at FMN2, against DIAPH2, on DIAPH1, at INF2 and on FMNL3 was greater than 40 µM in each case. The “inhibitory activity” value in the series on human formins was “no detectable inhibitory effect”.

Regarding `CN1C(=O)C(=Cc2ccco2)C(=O)N(c2cccc(Br)c2)C1=S` [Compound 2], the IC50 at FMN2 stood at 14 ± 2 µM; against DIAPH2 it was 5 ± 5 µM; at DIAPH1, 13 ± 3 µM; at INF2 it was 5 ± 2 µM; on FMNL3, 4 ± 1 µM. Also, in the series with human formins, the “inhibitory activity” value is listed as “well tolerated”.

As for `COc1ccc(N2C(=O)C(=Cc3cc(Br)co3)C(=O)NC2=S)cc1` [Compound 13], the IC50 against DIAPH2 amounted to 3.3 ± 0.2 µM; against INF2, 6 ± 2 µM; against FMNL3, 4 ± 1 µM.

`O=C1NC(=S)N(c2cccc(Br)c2)C(=O)C1=Cc1ccc(Br)o1` [Compound 16]: the IC50 worked out at 25 ± 5 µM against FMN2; 9 ± 1 µM against DIAPH2; 30 ± 10 µM against DIAPH1; 7 ± 3 µM against INF2; 14 ± 5 µM on FMNL3. For the same molecule, the “inhibitory activity” value with human formins is “well tolerated”.

For `O=C1C(=Cc2ccco2)C(=O)N(c2cccc(Br)c2)C(=S)N1c1ccccc1` [Compound 4], the IC50 at FMN2 was 9 ± 1 µM; against DIAPH2, 2.3 ± 1.7 µM; against DIAPH1 it was 11 ± 7 µM; on INF2 it was 4 ± 1 µM; at FMNL3, 4 ± 1 µM. Besides, the “fold change in potency (IC50) compared with SMIFH2 (1)” value in the series on human formins is 3–fourfold more potent. In addition, in the series on human formins, the “inhibitory activity” value was “well tolerated”.

As to `O=C1NC(=S)N(c2ccccc2)C(=O)C1=Cc1ccco1` [Compound 9], the IC50 is 40 µM against DIAPH2, greater than 40 µM on DIAPH1, 30 µM against INF2 and greater than 40 µM at FMNL3. Also, the “inhibitory activity” value in the series on human formins is reported as “measurable but weak to minimal activity”. Further, the solubility entry in the series “solubility in DMSO” is listed as “low solubility; also recorded: poorly soluble in DMSO”.

Consider `O=C1NC(=S)N(c2cccc(Br)c2)C(=O)C1=Cc1ccc(Cl)o1` [Compound 15], for which the IC50 is 11 ± 4 µM on FMN2; 4 ± 1 µM at DIAPH2; 12 ± 6 µM against DIAPH1; 4 ± 1 µM against INF2; 7 ± 1 µM against FMNL3. Moreover, in the series on human formins, the “inhibitory activity” value is listed as “well tolerated”.

In the case of `Cc1ccc(C=C2C(=O)NC(=S)N(c3cccc(Br)c3)C2=O)o1` [Compound 17], the IC50 at FMN2, at DIAPH2, against DIAPH1, on INF2 and against FMNL3 was greater than 40 µM in each case. Moreover, the “inhibitory activity” value with human formins is recorded as “abolished activity”.

In the case of `COc1ccc(N2C(=O)C(=Cc3ccco3)C(=O)NC2=S)cc1` [Compound 10], the IC50 at FMN2 worked out at 23 ± 4 µM; against DIAPH2, 12 ± 8 µM; against DIAPH1, 27 ± 12 µM; at INF2 it was 37 ± 16 µM; on FMNL3 it was 17 ± 6 µM. Also, the “inhibitory activity” value with human formins was “reduced activity”.

Consider `O=C1NC(=S)N(c2cccc(Br)c2)C(=O)/C1=C/C=C/c1ccco1` [Compound 18], for which the results for the IC50 against DIAPH2 and against INF2 were 20 µM and greater than 40 µM, respectively. The “inhibitory activity” value in the series with human formins was “modest activity”.
